# Results published in US7892756B2, “Human salty taste receptor and methods of modulating salty taste perception” (Monell Chemical Senses Center, priority 2006, dated 2011).
# Entries after “also recorded” stand apart in the source; their conditions may differ. Read-outs that look alike come from different tables or passages of the source.
# How the values were obtained:
# [1] = system: salty taste response in humans; conditions: in vivo, cited from earlier work
# [2] = system: L-ArgR (native taste receptor for L-arginine); test: Taste nerve recordings from the animal, L-ArgR in its native state; format: in vivo, catfish
# Excerpt: The properties of the L-ArgR as measured in the bilayer are very similar to those observed through taste nerve recordings from the animal, when the L-ArgR is in its native state.
# [3] = system: catfish putative taste receptor for L-arginine; test: Single channel recording of purified receptor reconstituted in planar lipid bilayers (FIG. 9); format: biochemical; conditions: transmembrane potential −100 mV
# Excerpt: Proteoliposomes containing purified receptor protein from catfish taste epithelium are fused to planar lipid bilayers. Control records (trace shown in part A) were obtained after addition of proteolipisomes to the membrane bathing solution before addition of L-Arg. […] Transmembrane potential was −100 mV. Traces shown in all panels are continuous records of that specific condition.
# This example, in part, describes the extraction, purification, and membrane-reconstitution of a taste receptor for L-arginine (L-arg) from catfish. The methods, which are published and described in Grosvenor, W et al. (2004) BMC Neuroscience 5:25, can be readily adapted for reconstitution of ENaC, ENaC subunits, and salty taste receptors in lipid membranes as described below. The catfish has served as a model for taste receptor studies because the receptors are very sensitive to certain amino acids. One such amino acid is L-arg. Like the ENaC, the taste receptor for L-arg in catfish is an ion channel. Parallel approaches are utilized in solubilizing the L-arg and ENaC-type receptors. The receptors differ primarily by origin—the L-arg receptor is purified from catfish taste tissue and the ENaC subunits are synthesized by a heterologous cell culture expression system. […]
# ENaC delta (δ) subunit = target: T1, ENaC delta (δ) subunit (Homo sapiens, UniProt P51172); conditions: delta versus alpha subunit; cited from earlier work
# T1 sequence (P51172 1-802): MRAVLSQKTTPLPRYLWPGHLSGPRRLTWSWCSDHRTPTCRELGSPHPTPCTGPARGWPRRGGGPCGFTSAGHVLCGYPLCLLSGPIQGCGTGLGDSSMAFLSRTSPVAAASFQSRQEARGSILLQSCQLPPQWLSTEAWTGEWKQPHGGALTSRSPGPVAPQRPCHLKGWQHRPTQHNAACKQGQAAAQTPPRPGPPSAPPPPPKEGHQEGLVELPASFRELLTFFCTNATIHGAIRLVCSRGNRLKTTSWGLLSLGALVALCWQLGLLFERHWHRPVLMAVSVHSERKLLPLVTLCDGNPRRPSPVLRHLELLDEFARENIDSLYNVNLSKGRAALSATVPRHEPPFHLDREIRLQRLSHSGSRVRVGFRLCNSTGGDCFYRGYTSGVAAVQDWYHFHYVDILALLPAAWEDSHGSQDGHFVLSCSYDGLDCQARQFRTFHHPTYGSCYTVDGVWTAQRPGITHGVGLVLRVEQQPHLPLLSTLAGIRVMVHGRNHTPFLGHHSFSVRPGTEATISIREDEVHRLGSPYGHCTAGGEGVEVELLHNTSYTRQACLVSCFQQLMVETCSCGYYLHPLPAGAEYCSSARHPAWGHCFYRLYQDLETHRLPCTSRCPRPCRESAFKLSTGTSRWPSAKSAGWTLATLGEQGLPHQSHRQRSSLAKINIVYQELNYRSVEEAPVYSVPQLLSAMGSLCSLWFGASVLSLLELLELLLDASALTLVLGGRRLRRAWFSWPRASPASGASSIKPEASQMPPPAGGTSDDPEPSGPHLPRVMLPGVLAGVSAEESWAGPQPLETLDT
# T1 sequence (P51168 1-640 partner): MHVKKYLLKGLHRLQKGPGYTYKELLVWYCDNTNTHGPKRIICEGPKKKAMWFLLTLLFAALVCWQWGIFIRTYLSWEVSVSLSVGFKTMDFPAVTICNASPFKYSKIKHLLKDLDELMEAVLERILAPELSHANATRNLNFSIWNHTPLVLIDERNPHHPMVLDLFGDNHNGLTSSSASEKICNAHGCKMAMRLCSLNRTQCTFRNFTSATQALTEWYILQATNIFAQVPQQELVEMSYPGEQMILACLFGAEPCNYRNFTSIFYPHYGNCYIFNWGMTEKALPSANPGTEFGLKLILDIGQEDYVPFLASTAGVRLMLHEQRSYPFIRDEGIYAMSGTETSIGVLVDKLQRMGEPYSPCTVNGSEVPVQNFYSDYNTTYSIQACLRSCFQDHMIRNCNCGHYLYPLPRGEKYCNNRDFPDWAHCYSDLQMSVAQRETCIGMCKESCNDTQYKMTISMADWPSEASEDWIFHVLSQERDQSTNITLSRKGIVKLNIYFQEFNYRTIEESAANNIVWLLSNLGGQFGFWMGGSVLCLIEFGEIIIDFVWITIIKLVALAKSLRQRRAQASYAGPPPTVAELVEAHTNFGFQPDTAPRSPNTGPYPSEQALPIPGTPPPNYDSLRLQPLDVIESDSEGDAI
# T1 sequence (P51170 1-649 partner): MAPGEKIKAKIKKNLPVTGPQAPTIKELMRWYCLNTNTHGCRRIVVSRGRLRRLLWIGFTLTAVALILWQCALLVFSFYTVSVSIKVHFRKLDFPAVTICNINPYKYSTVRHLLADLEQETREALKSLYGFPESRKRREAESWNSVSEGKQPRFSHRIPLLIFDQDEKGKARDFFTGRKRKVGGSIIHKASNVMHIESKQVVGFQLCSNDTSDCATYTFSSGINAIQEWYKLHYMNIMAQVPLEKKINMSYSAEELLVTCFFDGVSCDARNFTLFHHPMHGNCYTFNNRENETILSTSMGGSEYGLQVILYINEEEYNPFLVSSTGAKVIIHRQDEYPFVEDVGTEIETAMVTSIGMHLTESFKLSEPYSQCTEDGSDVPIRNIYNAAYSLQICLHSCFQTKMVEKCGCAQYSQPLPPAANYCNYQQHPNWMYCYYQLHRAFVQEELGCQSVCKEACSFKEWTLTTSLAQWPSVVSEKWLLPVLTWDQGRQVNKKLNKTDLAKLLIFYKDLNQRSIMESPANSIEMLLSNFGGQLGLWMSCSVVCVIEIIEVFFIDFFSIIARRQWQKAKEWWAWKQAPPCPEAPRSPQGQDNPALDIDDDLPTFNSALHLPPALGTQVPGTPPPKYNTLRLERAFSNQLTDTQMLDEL
# [4] = target: T2, ENaC composed of human delta, beta, gamma (Homo sapiens, UniProt P51172, C696Y); test: Amiloride inhibition of ENaC of different composition (FIG. 4); format: biochemical; conditions: gamma ENaC compared with human alpha
# T2 sequence (P51172 1-638 isoform P51172-1 C532Y): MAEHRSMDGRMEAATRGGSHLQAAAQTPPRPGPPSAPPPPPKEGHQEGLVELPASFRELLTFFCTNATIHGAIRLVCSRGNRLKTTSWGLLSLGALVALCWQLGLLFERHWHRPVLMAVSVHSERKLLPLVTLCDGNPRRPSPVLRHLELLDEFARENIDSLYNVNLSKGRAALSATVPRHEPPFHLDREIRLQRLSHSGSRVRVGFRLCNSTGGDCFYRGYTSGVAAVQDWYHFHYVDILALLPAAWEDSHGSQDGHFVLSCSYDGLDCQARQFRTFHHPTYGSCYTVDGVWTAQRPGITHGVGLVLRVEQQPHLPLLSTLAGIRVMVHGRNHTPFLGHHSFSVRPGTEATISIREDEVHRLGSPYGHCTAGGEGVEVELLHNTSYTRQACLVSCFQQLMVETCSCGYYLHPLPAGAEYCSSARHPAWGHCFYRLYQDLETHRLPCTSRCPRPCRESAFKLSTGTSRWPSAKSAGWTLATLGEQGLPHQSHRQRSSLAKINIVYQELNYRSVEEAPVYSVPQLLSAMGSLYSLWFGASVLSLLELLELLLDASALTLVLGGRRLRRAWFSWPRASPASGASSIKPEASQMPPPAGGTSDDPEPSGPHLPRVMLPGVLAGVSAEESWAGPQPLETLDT
# T2 sequence (P51168 1-640 partner): T1 sequence (P51168 1-640 partner)
# T2 sequence (P51170 1-649 partner): T1 sequence (P51170 1-649 partner)
smiles,measurement,setting,value
"[Cl-].[Na+] [NaCl, sodium chloride]",concentration at which a salty taste is imparted,[1],above 50 mM
"N=C(N)NCCC[C@@H](N)C(=O)O [D-Arg, D-arginine]",effect on the native receptor,[2],inhibits the receptor
same,effect on salty taste response in humans,[1],equally effective
same,single channel activity after addition to the cis-side following L-Arg,"[3]; 100 μM, cis-side, after 10 μM L-Arg",activity ceased
N=C(N)NCCC[C@H](N)C(=O)O [arginine],effect on salty taste response in humans,[1],salty taste enhancers
"N=C(N)NCCC[C@H](N)C(=O)O [L-Arg, L-arginine]",sensitivity of the native receptor,[2],in the tenths of uM
same,effect on salty taste response in humans,[1]; listed as L-arginine,equally effective
same,single channel activity after addition to the cis-side,"[3]; 10 μM, cis-side of bilayer",evoked regular periodic channel activity
N=C(N)NC(=O)c1nc(Cl)c(N)nc1N [amiloride],effect on salty taste response in humans,[1],inability of amiloride to inhibit sodium-induced salty taste response in humans; also recorded: not sensitive to amiloride
same,lower affinity for amiloride of delta subunit relative to alpha subunit,ENaC delta (δ) subunit,30 fold
same,"amiloride sensitivity of delta-containing ENaC relative to alpha, beta, gamma ENaC",[4],less so than the alpha; also recorded: less sensitive to amiloride
N=C(N)NCCCC[C@H](N)C(=O)O [homoarginine],effect on salty taste response in humans,[1],salty taste enhancers
[H]/N=C(\N/C(=N/[H])NCCCCCCNC(=N)NC(=N)Nc1ccc(Cl)cc1)Nc1ccc(Cl)cc1 [chlorhexidine],effect on salty taste response in humans,[1],inhibitor of the salty taste response in humans
N=C(N)N [guanidine],effect on salty taste response in humans,[1],salty taste enhancers
